Source: patent publication US7198945B2, “Cell having modified cell membrane” (Teruyuki Nagamune, priority 2001, dated 2007)
“Also recorded” adds a separate entry of the source.

Experiments:
[1] = tested on: mouse fibroblast cell line NIH3T3; assay: Anchoring of conjugates to cell membranes, observed by confocal laser scanning microscope; conditions: for Anchoring to cell surface: Mouse fibroblasts NIH3T3, 37° C. for 5 min, confocal microscope, 1000 magnifications
Description: Mouse fibroblasts NIH3T3 were cultured at 37° C. under 5% CO2 concentration using Dulbecco's Modified Eagle's Medium supplemented with 10% fetal calf serum and Glass bottom Microwell Dishes (35 mm dish, Uncoated, No. 0 Coverslip). The cells were cultured until the culture was approximately 80% confluent for 20 hours to 45 hours. […] The Glass bottom Microwell Dishes with NIH3T3 cells attached thereto were rinsed with 2 mL of phosphate buffered saline (the same as described above) which was subjected to filtration sterilization beforehand. Then, 0.1 mL of the polyethylene oxide oleylether-biotin conjugate solution was added to the NIH3T3 cells attached on the glass surface and a reaction was performed at 37° C. for 5 min. After the reaction, the cells were washed twice with 2 mL of phosphate buffered saline. Then, 0.1 mL of phosphate buffered saline containing 6.7 nM streptavidin and fluorescein conjugate (Molecular Probes; Cat# S-869) (hereinafter referred to as “fluorescein-labeled streptavidin”) was added to the cells, followed by incubation at 37° C. for 20 min.
The modification of the cell membranes was verified by observing the cells under a confocal laser scanning microscope (Leica).

[2] = tested on: Chinese hamster ovarian follicle cell line CHO; assay: Anchoring of EGFP conjugate to cell membranes, observed by confocal laser scanning microscope; format: cell-based; set-up: Anchoring to cell surface: key to the marks not given beside the values
Excerpt: Therefore, it was verified that the conjugate can be anchored to cells other than mouse cells.

[3] = tested on: suspended cells (32D, Ba/F3 and 9E10 cells); assay: Anchoring of EGFP conjugate to suspended cells, flow cytometer; format: cell-based, mouse; set-up: Anchoring to cell surface: key to the marks not given beside the values
Description: (§1) Mouse hybridoma 9E10 was cultured at 37° C. under 5% CO2 concentration using RPMI 1640 media (“Nissui” powder, NISSUI PHARMACEUTICAL CO., LTD., Cat# 05918) supplemented with 10% fetal calf serum. […] 32D, Ba/F3 and 9E10 cells (hereinafter, generically called as “suspended cells”) were centrifuged to collect 1×10^6 cells. Each of the cell was centrifuged for washing with 13 mL of phosphate buffered saline. […] Then the cells were centrifuged for washing once with 13 mL of phosphate buffered saline, and then 1 mL of phosphate buffered saline was added to each cell pellet.
(§2) Respective treated cell suspensions were observed under a flow cytometer (Coulter, EPICS-C). […] Thus, it was verified that the polyethylene oxide oleylether-EGFP can be anchored to suspended cells.

mouse hybridoma 9E10 = assay: Flow cytometer fluorescence intensity of treated suspended cells; format: cell-based; conditions: 37° C. for 5 min
Description: as §1, §2

[4] = tested on: mouse myeloid cell line 32D; assay: as above; format: cell-based; conditions: 37° C. for 5 min
Description: as §1, §2

[5] = tested on: mouse pro-B cell line Ba/F3; assay: as above; format: cell-based; conditions: 37° C. for 5 min
Description: as §1, §2

[6] = NIH3T3, confocal laser scanning microscope

For “Polyethylene Oxide Nonylphenyl Ether (n=40, Average Molecular Weight of 2160)-biotin Conjugate [Example 17, reference compound]”, the “Anchoring to cell surface” value [1] was “−” and the “fluorescence on cell membranes / anchoring (result in words)” value [1, 6] was “no fluorescence from fluorescein was observed”.
“polyethylene oxide oleylether succinate [reference compound]” was tested, and the “fluorescence on cell membranes / anchoring (result in words)” value [1, 6] was “no fluorescence from fluorescein was observed”.
With “Oleic Acid-biotin [Example 15, reference compound]” the “Anchoring to cell surface” value [1] was “−” and the “fluorescence on cell membranes / anchoring (result in words)” value [1, 6] was “no fluorescence from fluorescein was observed”.
In the case of “Polyethylene Oxide Oleylether (n=90, Average Molecular Weight of 4400)-Green Fluorescent Protein EGFP Conjugate [Example 4]”, the “fluorescence from EGFP on cell membranes (result in words)” value ([2]; CHO cells, confocal laser scanning microscope) is reported as “fluorescence from EGFP was observed on the cell membranes of all of the CHO cells”, the “Anchoring to cell surface” value ([2]; Chinese hamster ovarian follicle cells CHO, confocal microscope) is reported as “++” and the “Anchoring to cell surface” value ([3]; Suspended cell) is reported as “++”. The “fluorescence intensity of cells compared to cells treated only with EGFP (result in words)” value ([3]; suspended cells, flow cytometer) was “an increased number of the cells with a stronger fluorescence intensity was observed”, the “relative value of fluorescence intensity of cells” value (“relative value” below) (mouse hybridoma 9E10) was 49.6 and the “relative value” value [4] was 30.1. The “relative value” value [5] was 36.7, the “Anchoring to cell surface” value [1] was “++” and the “fluorescence on cell membranes / anchoring (result in words)” value [1, 6] was “anchored to the cell membranes”.
With “Polyethylene Oxide Oleylether (n=40; Average Molecular Weight of 2250)-biotin Conjugates [Example 8]” the “Anchoring to cell surface” value [1] was “++”.
“Fluorescent-Labeled (Fluorescein)-Polyethylene Oxide-Modified Dioleoyl Phosphatidyl Ethanolamine [Example 11]” was tested, and the “Anchoring to cell surface” value [1] was “++” and the “fluorescence on cell membranes / anchoring (result in words)” value [1, 6] was “Fluorescence from fluorescein was observed on the cell membranes of all the NIH3T3 cells”.
“Polyethylene Oxide Stearyl Ether (n=15: Average Molecular Weight of 1100)-biotin Conjugates [Example 10]” was tested, and the “Anchoring to cell surface” value [1] was “+” and the “fluorescence on cell membranes / anchoring (result in words)” value [1, 6] was “fluorescence from fluorescein was observed on the cell membranes of the NIH3T3 cells”.
With “Polyethylene Oxide Oleylether (n=90, Average Molecular Weight of 4400)-biotin Conjugate [Example 2]” the “Anchoring to cell surface” value [1] was “++”, the “time in which conjugates were anchored to all of the cell membranes” value ([1]; NIH3T3, 37° C.) was no more than 5 min and the “fluorescence on cell membranes / anchoring (result in words)” value ([1]; NIH3T3; confocal laser scanning microscope; average molecular weight of 4400)-biotin co) was “fluorescence deriving from fluorescein was observed on the cell membranes of all of the cells in the field; also recorded: fluorescence from fluorescein was specifically observed only in the cell membranes”. For the same compound, the “binding of biotin to streptavidin after anchoring” value ([1]; NIH3T3, fluorescein-labeled streptavidin) was “not inhibited”.
In the case of “Polyethylene Oxide Oleylether (n=180; Average Molecular Weight of 8400)-biotin Conjugates [Example 9]”, the “Anchoring to cell surface” value [1] is reported as “++”.
In the case of “Polyethylene Oxide Oleylether (n=15; Average Molecular Weight of 1100)-biotin Conjugates [Example 7]”, the “Anchoring to cell surface” value [1] is reported as “++”.
`NCCOCCOCCNC(=O)CCCC[C@@H]1SC[C@@H]2NC(=O)N[C@@H]21` [biotin-NH2, Biotin-PEO-Amine, reference compound] was tested, and the “fluorescence on cell membranes / anchoring (result in words)” value [1, 6] was “no fluorescence from fluorescein was observed”.
“Amino Polyethylene Oxide Oleylether (n=90, Average Molecular Weight of 4400)-biotin Conjugate [Example 12]” was tested, and the “Anchoring to cell surface” value [1] was “++” and the “fluorescence on cell membranes / anchoring (result in words)” value [1, 6] was “remain unchanged and still excellent”.
